In patent US9163008B2, “Pyrimidines as sodium channel blockers” (Purdue Pharma, L.P., priority 2011, dated 2015):
Like-named read-outs stand apart in the source and are kept apart here.

How the values were obtained:
human Nav1.7 = human Nav1.7 (Homo sapiens (Human), UniProt Q15858); assay: FLIPR sodium dye assay (CoroNa Green) with KCl and test article pre-incubation; type: cell-based
hNav1.7 = hNav1.7 (Homo sapiens (Human), UniProt Q15858); assay: Electrophysiology (EP) whole-cell patch clamp assay; type: cell-based; details: hNav1.7 HEK-293
Procedure: The hNav1.7 expressing HEK-293 cells were plated on 35 mm culture dishes pre-coated with poly-D-lysine in standard DMEM culture media (Mediatech, Inc., Herndon, Va.) and incubated in a 5% CO2 incubator at 37° C. Cultured cells were used approximately 12-48 h after plating.
On the day of experimentation, the 35 mm dish was placed on the stage of an inverted microscope equipped with a perfusion system that continuously perfuses the culture dish with fresh recording media. A gravity driven superfusion system was used to apply test solutions directly to the cell under evaluation. This system consists of an array of glass pipette glass connected to a motorized horizontal translator. The outlet of the shooter was positioned approximately 100 μm from the cell of interest.
Gigaseals were formed and the whole-cell configuration was established in voltage clamp mode, and membrane currents generated by hNav1.7 were recorded in gap-free mode. […] Signals were sampled at 50 kHz and low pass filtered at 3 kHz.
To determine a membrane potential at which the majority of channels are in the resting state, a standard steady-state inactivation (SSIN) protocol was run using 100 ms prepulses×10 mV depolarizing steps. The holding potential for testing resting block (Vh1) was 20 mV more hyperpolarized than the first potential where inactivation is observed with the inactivation protocol.
From this holding potential a standard I-V protocol was run to determine the potential at which the maximal current (Imax) was elicited. This potential was the test potential (Vt).
The fractional response was calculated as follows: FR=I(after drug)/I(control),
where I is the peak current amplitude and was used for estimating resting block dissociation constant, Kr: Kr=[drug]*{FR/(1−FR)},
To assess the block of inactivated channels the holding potential was depolarized such that 20-50% of the current amplitude was reduced when pulsed to the same Vt as above. The magnitude of this depolarization depends upon the initial current amplitude and the rate of current loss due to slow inactivation. This was the second holding potential (Vh2). The current reduction was recorded to determine the fraction of available channels at this potential (h). h=I@Vh2/Imax.
At this membrane voltage a proportion of channels are in the inactivated state, and thus inhibition by a blocker includes interaction with both resting and inactivated channels.
To determine the potency of the test compound on inactivated channels, a series of currents were elicited by 10 ms voltage steps from Vh2 to Vt every 10-15 seconds. After establishing a stable baseline, the low concentration of the compound was applied. Multiple cumulative concentrations may have to be applied to identify a concentration that will block between 40-60% of the current. Washout was attempted to re-establish baseline. Fractional responses were measured with respect to a projected baseline to determine Kapp. Kapp=[drug]*{FR/(1−FR)},
This Kapp value, along with the calculated Kr and h values, were used to calculate the affinity of the compound for the inactivated channels (Ki) using the following equation: Ki=(1−h)/((1/Kapp)−(h/Kr)).
Vehicle solution used to establish base line was also contacting 0.3% DMSO.
Data was analyzed off-line using Clampfit software (pClamp, v. 8; Axon Instruments) and graphed using GraphPad Prizm (v. 4.0 or higher) software.

[1] = recombinant human Nav1.7 in HEK293, veratridine and scorpion venom agonists, read-out: Nav1.7 Activity FLIPR assay IC50
[2] = read-out: Nav1.7 Activity FLIPR assay IC50

Sequence of human Nav1.7 (Q15858 other isoform, or with tags, fused parts or gaps): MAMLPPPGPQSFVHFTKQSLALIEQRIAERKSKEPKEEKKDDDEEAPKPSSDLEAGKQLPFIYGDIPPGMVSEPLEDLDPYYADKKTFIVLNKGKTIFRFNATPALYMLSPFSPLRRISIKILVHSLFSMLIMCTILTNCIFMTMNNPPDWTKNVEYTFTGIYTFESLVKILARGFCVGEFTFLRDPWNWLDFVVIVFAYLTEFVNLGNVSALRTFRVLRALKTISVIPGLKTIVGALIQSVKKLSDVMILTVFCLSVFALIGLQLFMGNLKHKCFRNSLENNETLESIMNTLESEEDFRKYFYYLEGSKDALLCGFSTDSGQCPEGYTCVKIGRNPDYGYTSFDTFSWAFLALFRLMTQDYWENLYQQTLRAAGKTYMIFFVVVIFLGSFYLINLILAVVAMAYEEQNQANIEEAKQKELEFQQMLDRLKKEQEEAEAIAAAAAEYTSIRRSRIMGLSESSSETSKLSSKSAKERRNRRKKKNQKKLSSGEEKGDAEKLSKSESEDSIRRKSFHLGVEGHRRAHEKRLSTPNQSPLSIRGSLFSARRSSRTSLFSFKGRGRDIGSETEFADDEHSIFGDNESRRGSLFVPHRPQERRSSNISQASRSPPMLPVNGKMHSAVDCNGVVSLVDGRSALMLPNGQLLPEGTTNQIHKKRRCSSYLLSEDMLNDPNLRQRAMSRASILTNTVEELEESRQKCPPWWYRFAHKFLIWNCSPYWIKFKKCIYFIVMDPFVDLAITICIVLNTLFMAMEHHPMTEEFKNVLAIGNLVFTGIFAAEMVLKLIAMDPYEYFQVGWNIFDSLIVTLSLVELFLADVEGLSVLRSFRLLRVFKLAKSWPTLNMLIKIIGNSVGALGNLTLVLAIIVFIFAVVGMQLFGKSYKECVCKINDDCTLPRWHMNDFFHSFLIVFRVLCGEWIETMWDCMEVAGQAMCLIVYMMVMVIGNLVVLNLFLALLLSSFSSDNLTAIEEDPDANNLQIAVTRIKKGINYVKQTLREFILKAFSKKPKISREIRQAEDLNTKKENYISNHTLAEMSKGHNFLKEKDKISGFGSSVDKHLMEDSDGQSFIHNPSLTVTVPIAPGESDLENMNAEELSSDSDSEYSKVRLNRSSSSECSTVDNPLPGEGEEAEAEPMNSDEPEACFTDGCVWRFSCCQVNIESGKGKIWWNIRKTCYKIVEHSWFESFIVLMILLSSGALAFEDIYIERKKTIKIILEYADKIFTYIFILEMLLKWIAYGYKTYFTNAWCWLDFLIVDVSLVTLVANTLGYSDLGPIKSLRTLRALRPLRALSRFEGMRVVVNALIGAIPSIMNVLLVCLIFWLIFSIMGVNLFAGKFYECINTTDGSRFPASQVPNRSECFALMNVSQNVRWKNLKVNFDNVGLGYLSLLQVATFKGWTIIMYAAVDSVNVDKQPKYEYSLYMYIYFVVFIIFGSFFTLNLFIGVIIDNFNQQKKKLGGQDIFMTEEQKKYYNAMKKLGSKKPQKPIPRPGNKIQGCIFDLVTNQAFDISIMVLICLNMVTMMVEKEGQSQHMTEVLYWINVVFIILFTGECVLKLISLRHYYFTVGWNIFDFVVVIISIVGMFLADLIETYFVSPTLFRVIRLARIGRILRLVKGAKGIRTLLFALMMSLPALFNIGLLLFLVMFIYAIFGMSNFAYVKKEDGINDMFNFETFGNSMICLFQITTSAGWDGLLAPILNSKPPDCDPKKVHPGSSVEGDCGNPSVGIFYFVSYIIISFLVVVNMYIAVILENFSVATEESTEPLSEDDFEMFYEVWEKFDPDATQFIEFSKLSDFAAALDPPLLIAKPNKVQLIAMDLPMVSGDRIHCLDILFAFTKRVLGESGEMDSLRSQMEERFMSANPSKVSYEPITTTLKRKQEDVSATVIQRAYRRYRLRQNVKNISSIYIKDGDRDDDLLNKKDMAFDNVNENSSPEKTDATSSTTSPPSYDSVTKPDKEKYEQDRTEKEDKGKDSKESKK
Sequence of hNav1.7 (Q15858 other isoform, or with tags, fused parts or gaps): as above

Row | Compound | IC50 (human Nav1.7; [1]) [µM] | IC50 (human Nav1.7; [2]) [µM] | also measured
1 | C[C@H](Nc1cc(C(N)=O)nc(-c2ccnc(Oc3ccc(F)cc3)c2)n1)C(N)=O [Cpd No. 68, (S)-6-((1-amino-1-oxopropan-2-yl)amino)-2-(2-(4-fluorophenoxy)pyridin-4-yl)pyrimidine-4-carboxamide] | > 20 | – | –
2 | C[C@H](Nc1cc(C(N)=O)nc(-c2ccc(Oc3ccc(C#N)cc3)cc2)n1)C(N)=O [Cpd No. 66, 6-((S)-1-Carbamoyl-ethylamino)-2-[4-(4-cyano-phenoxy)-phenyl]-pyrimidine-4-carboxylic acid amide] | 0.41 | – | –
3 | C[C@H](Nc1cc(C(N)=O)nc(N2CCC(Oc3ccc(C#N)cc3)CC2)n1)C(N)=O [compound 100, (S)-6-((1-amino-1-oxopropan-2-yl)amino)-2-(4-(4-cyanophenoxy)piperidin-1-yl)pyrimidine-4-carboxamide] | 4.57 | – | –
4 | NC(=O)c1cc(N2c3ccccc3C[C@H]2C(=O)O)nc(-c2ccc(Oc3ccc(F)cc3)cc2)n1 [Cpd No. 31, (S)-1-(6-carbamoyl-2-(4-(4-fluorophenoxy)phenyl)pyrimidin-4-yl)indoline-2-carboxylic acid] | > 20 | – | –
5 | CC(CC(N)=O)Nc1cc(C(N)=O)nc(-c2ccc(Oc3ccc(F)cc3)cc2)n1 (stereo not shown) [Cpd No. 23, 6-((4-amino-4-oxobutan-2-yl)amino)-2-(4-(4-fluorophenoxy)phenyl)pyrimidine-4-carboxamide] | – | 0.3 | –
6 | C[C@@H](C(N)=O)N(C)c1cc(C(N)=O)nc(-c2ccc(Oc3ccc(F)cc3)cc2)n1 [Cpd No. 20, (S)-6-((1-amino-1-oxopropan-2-yl)(methyl)amino)-2-(4-(4-fluorophenoxy)phenyl)pyrimidine-4-carboxamide] | – | 0.22 | –
7 | CC(Nc1cc(C(N)=O)nc(-c2ccc(Oc3ccc(F)cc3)cc2)n1)C(N)=O (stereo not shown) [Cpd No. 22, 6-((1-amino-1-oxopropan-2-yl)amino)-2-(4-(4-fluorophenoxy)phenyl)pyrimidine-4-carboxamide] | – | 0.55 | –
8 | C[C@H](Nc1cc(C(=O)O)nc(-c2ccc(Oc3ccc(F)cc3)cc2)n1)C(N)=O [Cpd No. 35, (S)-6-((1-amino-1-oxopropan-2-yl)amino)-2-(4-(4-fluorophenoxy)phenyl)pyrimidine-4-carboxylic acid] | > 20 | – | Ki (hNav1.7; affinity for inactivated channels, read-out: Nav1.7 Activity EP assay Ki): 20.5 µM; Kd (hNav1.7; resting block dissociation constant, read-out: Nav1.7 Activity EP assay Kr): 102 µM
9 | C[C@H](Nc1cc(C(N)=O)nc(N2CCN(C(c3ccc(F)cc3)c3ccc(F)cc3)CC2)n1)C(N)=O [Cpd No. 71, (S)-6-((1-amino-1-oxopropan-2-yl)amino)-2-(4-(bis(4-fluorophenyl)methyl)piperazin-1-yl)pyrimidine-4-carboxamide] | > 20 | – | –
10 | C[C@H](Nc1cc(C(N)=O)nc(-c2ccc(O)cc2)n1)C(N)=O [Cpd No. 65, 6-((S)-1-Carbamoyl-ethylamino)-2-(4-hydroxy-phenyl)-pyrimidine-4-carboxylic acid amide] | – | > 20 | –
11 | NC(=O)c1cc(N2CCC[C@H]2C(N)=O)nc(-c2ccc(Oc3ccc(C(F)(F)F)cc3)cc2)n1 [Cpd No. 91, (S)-6-(2-carbamoylpyrrolidin-1-yl)-2-(4-(4-(trifluoromethyl)phenoxy)phenyl)pyrimidine-4-carboxamide] | – | 0.2 | –
12 | NC(=O)c1cc(N2CCC[C@H]2C(N)=O)nc(-c2ccc(Oc3ccc(Cl)cc3F)cc2)n1 [compound 78, (S)-6-(2-carbamoylpyrrolidin-1-yl)-2-(4-(4-chloro-2-fluorophenoxy)phenyl)pyrimidine-4-carboxamide] | – | 0.12 | –
13 | C[C@H](Nc1cc(C(N)=O)nc(N2CCC3(CC2)Cc2ccccc2C3)n1)C(N)=O [compound 73, (S)-6-((1-amino-1-oxopropan-2-yl)amino)-2-(1,3-dihydrospiro[indene-2,4′-piperidin]-1′-yl)pyrimidine-4-carboxamide] | – | 1.8 | –
14 | NC(=O)c1cc(NC2(C(N)=O)CC2)nc(-c2ccc(Oc3ccc(F)cc3)cc2)n1 [Cpd No. 8, 6-((1-carbamoylcyclopropyl)amino)-2-(4-(4-fluorophenoxy)phenyl)pyrimidine-4-carboxamide] | – | 0.42 | –
15 | CCOC(=O)[C@@H]1Cc2ccccc2N1c1cc(C(N)=O)nc(-c2ccc(Oc3ccc(F)cc3)cc2)n1 [Cpd No. 16, (S)-ethyl 1-(6-carbamoyl-2-(4-(4-fluorophenoxy)phenyl)pyrimidin-4-yl) indoline-2-carboxylate] | – | > 20 | –
16 | NC(=O)c1cc(N2CCCC(C(N)=O)C2)nc(-c2ccc(Oc3ccc(F)cc3)cc2)n1 (stereo not shown) [Cpd No. 24, 6-(3-carbamoylpiperidin-1-yl)-2-(4-(4-fluorophenoxy)phenyl)pyrimidine-4-carboxamide] | – | – | IC50 (human Nav1.7): 10 to 20 µM
17 | C[C@H](Nc1cc(C(N)=O)nc(Oc2ccc(C(F)(F)F)cc2-c2ccnnc2)n1)C(N)=O [Cpd No. 72, (S)-6-((1-amino-1-oxopropan-2-yl)amino)-2-(2-(pyridazin-4-yl)-4-(trifluoromethyl)phenoxy)pyrimidine-4-carboxamide] | – | 1.42 | –
18 | C[C@H](Nc1cc(C(N)=O)nc(Oc2ccc(Cl)cc2-c2ccnc(N)c2)n1)C(N)=O [Cpd No. 67, (S)-6-((1-amino-1-oxopropan-2-yl)amino)-2-(2-(2-aminopyridin-4-yl)-4-chlorophenoxy)pyrimidine-4-carboxamide] | > 20 | – | –
19 | NC(=O)c1cc(N2c3ccccc3C[C@H]2C(N)=O)nc(-c2ccc(Oc3ccc(F)cc3)cc2)n1 [Example 36] | > 20 | – | –
20 | NC(=O)c1cc(N2CCNCC2CO)nc(-c2ccc(Oc3ccc(F)cc3)cc2)n1 (stereo not shown) [Cpd No. 48, 2-(4-(4-fluorophenoxy)phenyl)-6-(2-(hydroxymethyl)piperazin-1-yl)pyrimidine-4-carboxamide] | – | 0.17 | –
21 | NC(=O)c1cc(NC[C@H](O)C(N)=O)nc(-c2ccc(Oc3ccc(F)cc3)cc2)n1 [Cpd No. 50, (S)-6-((3-amino-2-hydroxy-3-oxopropyl)amino)-2-(4-(4-fluorophenoxy)phenyl)pyrimidine-4-carboxamide] | > 20 | – | –
22 | COC(=O)[C@H](C)Nc1cc(C(=O)O)nc(-c2ccc(Oc3ccc(F)cc3)cc2)n1 [Cpd No. 33, (S)-2-(4-(4-fluorophenoxy)phenyl)-6-((1-methoxy-1-oxopropan-2-yl)amino)pyrimidine-4-carboxylic acid] | – | 0.97 | –
23 | C[C@H](Nc1cc(C(N)=O)nc(-c2ccc(Oc3ccc(C#N)cn3)cc2)n1)C(N)=O [Cpd No. 37, (S)-6-((1-amino-1-oxopropan-2-yl)amino)-2-(4-((5-cyanopyridin-2-yl)oxy)phenyl)pyrimidine-4-carboxamide] | 10 to 20 | – | –
24 | NC(=O)c1cc(N2CCC[C@H]2C(=O)O)nc(-c2ccc(Oc3ccc(F)cc3)cc2)n1 [Cpd No. 30, (S)-1-(6-carbamoyl-2-(4-(4-fluorophenoxy)phenyl)pyrimidin-4-yl)pyrrolidine-2-carboxylic acid] | > 20 | – | –
25 | NC(=O)c1cc(NC[C@H](O)CO)nc(-c2ccc(Oc3ccc(F)cc3)cc2)n1 [Cpd No. 46, (S)-6-((2,3-dihydroxypropyl)amino)-2-(4-(4-fluorophenoxy)phenyl)pyrimidine-4-carboxamide] | > 20 | – | –
26 | C[C@H](Nc1cc(C(N)=O)nc(-c2ccc(Oc3ccc(F)cc3)cc2)n1)C(=O)O [Cpd No. 28, (S)-2-((6-carbamoyl-2-(4-(4-fluorophenoxy)phenyl)pyrimidin-4-yl)amino)propanoic acid] | 10 to 20 | – | –
27 | O=C(O)c1cc(N2CCC[C@H]2C(=O)O)nc(-c2ccc(Oc3ccc(F)cc3)cc2)n1 [Cpd No. 29, (S)-6-(2-carboxypyrrolidin-1-yl)-2-(4-(4-fluorophenoxy)phenyl)pyrimidine-4-carboxylic acid] | > 20 | – | –
28 | NC(=O)CCNc1cc(C(N)=O)nc(-c2ccc(Oc3ccc(F)cc3)cc2)n1 [Cpd No. 19, 6-((3-amino-3-oxopropyl)amino)-2-(4-(4-fluorophenoxy)phenyl)pyrimidine-4-carboxamide] | > 20 | – | –
29 | NC(=O)c1cc(NC[C@H](O)C(=O)O)nc(-c2ccc(Oc3ccc(F)cc3)cc2)n1 [Cpd No. 51, (S)-3-((6-carbamoyl-2-(4-(4-fluorophenoxy)phenyl)pyrimidin-4-yl)amino)-2-hydroxypropanoic acid] | > 20 | – | –
